{"source": "patent US20240408096A1", "about": "“DOSING REGIMENS FOR ORAL ALK2 KINASE INHIBITORS” (BioCryst Pharmaceuticals, Inc., priority 2020, published 2024)", "key": {"[1]": {"test": "Phase 1 Part 2 (MAD) safety and tolerability", "assay_type": "in vivo, human", "settings": "healthy subjects", "description": "(§1) The primary outcome measure of Part 1 and Part 2 will be: (1) measurement of the safety and tolerability by subject incidence of graded treatment-emergent adverse events (TEAEs), laboratory abnormalities, and changes to vital signs, ECGs, cardiac telemetry, and physical examination findings.\nFour sequential MAD cohorts were dosed.\nFor each cohort of Part 2, the daily dose of study drug was administered as a single dose (1 time daily or QD). Similar to Part 1 of the study, following a screening period to determine eligibility, subjects in each cohort entered the CRU on the […] of Day −1. Study eligibility was re-confirmed upon admission to the CRU, and subjects remained in the CRU overnight prior to dosing on Day 1. Subjects received a final morning dose of study drug on the last day of dosing. Subjects were discharged from the CRU following sample collection on Day 11. Dosage administration was supervised by study personnel and all subjects completed dosing per protocol. […] Subjects returned to the CRU on Day 23 (+2 days) for final follow-up safety assessments."}, "[2]": {"test": "Phase 1 Part 1 (SAD) safety and tolerability", "assay_type": "in vivo, human", "settings": "healthy subjects", "description": "as §1\nFour sequential SAD cohorts were dosed.\nFor each cohort of Part 1, the daily dose of study drug was administered as a single dose (1 time daily or QD). In Part 1 of the study, following a screening period to determine eligibility, subjects in each cohort entered the Phase 1 clinical research unit (CRU) on the afternoon of Day −1. Study eligibility was re-confirmed upon admission to the CRU, and subjects remained in the CRU overnight prior to dosing on Day 1. Following Day 1, subjects remained in the CRU for an additional 72 hours post-dose (i.e., discharge on Day 4) to enable collection of plasma and urine for PK samples and other study assessments. Subjects were discharged from the CRU following plasma PK sample collection on Day 4 and returned on Day 16 (+2 days) for a final follow-up visit."}, "[3]": {"test": "plasma protein binding, monkey", "assay_type": "in vitro ADME", "settings": "in vitro"}, "[4]": {"test": "in vitro genotoxicity: numerical chromosomal aberrations", "assay_type": "cell-based"}, "[5]": {"test": "Phase 1 Parts 1 and 2 blood pressure pharmacodynamics / exposure-response", "assay_type": "in vivo, human", "excerpt": "Where possible, systolic and diastolic BP measurements will be used to determine the change from baseline between each active treatment relative to that obtained on subjects receiving placebo within a study part. At each time point blood pressure data is collected, an individual subject's change from baseline will be calculated."}, "CYP2A6": {"target": "T1, CYP2A6 (Homo sapiens, UniProt P11509)", "T1 sequence (P11509 1-494)": "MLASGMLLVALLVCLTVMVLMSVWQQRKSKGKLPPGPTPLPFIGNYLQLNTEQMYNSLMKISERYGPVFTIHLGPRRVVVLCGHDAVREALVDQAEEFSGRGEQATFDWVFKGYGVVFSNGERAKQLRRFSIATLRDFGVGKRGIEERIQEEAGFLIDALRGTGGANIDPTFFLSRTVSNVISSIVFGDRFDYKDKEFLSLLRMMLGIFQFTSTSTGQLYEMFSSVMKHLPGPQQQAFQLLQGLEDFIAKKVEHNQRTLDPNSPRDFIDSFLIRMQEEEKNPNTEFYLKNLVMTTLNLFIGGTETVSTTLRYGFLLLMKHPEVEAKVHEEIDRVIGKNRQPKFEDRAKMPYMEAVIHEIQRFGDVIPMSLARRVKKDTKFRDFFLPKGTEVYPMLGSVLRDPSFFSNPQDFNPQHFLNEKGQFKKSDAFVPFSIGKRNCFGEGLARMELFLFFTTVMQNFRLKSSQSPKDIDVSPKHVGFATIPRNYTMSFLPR", "test": "CYP inhibition in vitro", "assay_type": "in vitro ADME"}, "[6]": {"test": "nonclinical PK / toxicokinetic assessments", "assay_type": "in vivo"}, "[7]": {"test": "plasma protein binding, dog", "assay_type": "in vitro ADME", "settings": "in vitro"}, "CYP2C8": {"target": "T2, CYP2C8 (Homo sapiens, UniProt P10632)", "T2 sequence (P10632 1-490)": "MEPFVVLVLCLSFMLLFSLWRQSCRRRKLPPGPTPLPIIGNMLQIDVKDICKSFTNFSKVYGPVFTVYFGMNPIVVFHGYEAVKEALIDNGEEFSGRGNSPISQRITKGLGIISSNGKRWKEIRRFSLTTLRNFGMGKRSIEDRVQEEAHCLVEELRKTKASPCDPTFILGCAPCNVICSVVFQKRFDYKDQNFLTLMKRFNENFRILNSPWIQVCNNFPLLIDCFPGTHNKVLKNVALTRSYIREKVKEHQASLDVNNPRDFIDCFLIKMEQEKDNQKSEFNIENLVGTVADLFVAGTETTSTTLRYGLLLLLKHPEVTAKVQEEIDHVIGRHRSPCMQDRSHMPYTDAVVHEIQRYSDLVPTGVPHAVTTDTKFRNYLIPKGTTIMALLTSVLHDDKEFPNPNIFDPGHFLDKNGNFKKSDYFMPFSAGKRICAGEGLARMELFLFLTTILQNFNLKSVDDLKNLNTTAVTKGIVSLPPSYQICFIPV", "test": "CYP inhibition in vitro", "assay_type": "in vitro ADME"}, "[8]": {"settings": "all cohorts and placebo subjects"}}}
{"compound": "COc1cc(-n2cnc(Nc3nc(N4CCC[C@H]4C(N)=O)nc4sccc34)c2)cc(OC)c1OC.O=C(O)CC(O)(CC(=O)O)C(=O)O", "note": "[Compound A]", "values": [{"measurement": "grade 3 or 4 adverse events", "setting": "[1]; Part 2, 5 mg to 20 mg QD over 7 days", "value": "no grade 3 or 4 adverse events"}, {"measurement": "safety and tolerability", "setting": "[1]; Part 2, multiple ascending oral doses 5 mg to 20 mg QD over 7 days", "value": "safe and generally well tolerated"}, {"measurement": "safety and tolerability", "setting": "[2]; Part 1, single ascending oral doses 5 mg to 25 mg", "value": "safe and generally well tolerated"}, {"measurement": "grade 3 or 4 adverse events", "setting": "[2]; Part 1, single oral doses 5 mg to 25 mg", "value": "no grade 3 or 4 adverse events"}, {"measurement": "plasma protein binding", "setting": "[3]", "value": "≥ 99.9", "unit": "%"}, {"measurement": "induction of numerical chromosomal aberrations", "setting": "[4]", "value": "negative"}, {"measurement": "correlation of BP with dose or exposure", "setting": "[5]; Parts 1 and 2", "value": "no meaningful correlation"}, {"measurement": "slope of Δ diastolic BP-concentration model", "setting": "[5]; [8]", "value": 0.00151}, {"measurement": "slope of Δ systolic BP-concentration model", "setting": "[5]; [8]", "value": 0.00686}, {"measurement": "CYP2A6 inhibition", "setting": "CYP2A6", "value": "not an inhibitor"}, {"measurement": "oral bioavailability", "setting": "[6]; nonclinical PK studies", "value": "orally bioavailable"}, {"measurement": "accumulation with repeated dosing", "setting": "[6]; repeated dosing up to 28 days, toxicokinetic assessments", "value": "do not accumulate"}, {"measurement": "plasma protein binding", "setting": "[7]", "value": "≥ 99.9", "unit": "%"}, {"measurement": "CYP2C8 inhibition", "setting": "CYP2C8", "value": "is an inhibitor"}]}
